Experiments:
[1] = test system: P. falciparum drug-sensitive 3D7 strain; assay: Erythrocytic-stage parasite growth inhibition, diaphorase-coupled LDH assay, 3D7; format: cell-based, Plasmodium falciparum; settings: Plasmodium falciparum, 3D7; Table S1; means ± SEM; read-out: IC50 (μM) Pf cell 3D7
Method: (§1) Selected hit compounds were also tested against erythrocytic-stage parasites of P. falciparum drug-sensitive 3D7 and drug-resistant Dd2 strains ([39]). For the phenotypic assay, parasite cultures were synchronized with 5% (wt/vol) D-sorbitol as previously described ([40]). A synchronized culture containing ring-stage parasites of 0.3% parasitemia was initiated with a culture volume of 25 μL/well on a 384-well plate. A series of diluted compounds (at final concentrations of 50, 10, 2, 0.4, and 0.08 μM) were used to calculate IC50 values. Mefloquine at 50 μM and atovaquone at 20 μM were used as no-growth control (100% inhibition). After 72 h of incubation, parasite growth was measured by diaphorase-coupled lactate dehydrogenase (LDH) assay as previously described ([41]). Absorbance at 650 nm was measured using SpectraMax Paradigm multimode microplate reader (Molecular Devices, San Jose, CA, USA). The IC50 values were calculated as described above.

[2] = test system: P. falciparum drug-resistant Dd2 strain; assay: Erythrocytic-stage parasite growth inhibition, diaphorase-coupled LDH assay, Dd2; format: cell-based, Plasmodium falciparum; settings: Plasmodium falciparum, DD2; Table S1; means ± SEM; read-out: IC50 (μM) Pf cell Dd2
Method: as §1

HepG2 cell line = assay: Cytotoxicity assay (Cell Counting Kit-8); format: cell-based, human; settings: Homo sapiens, HepG2; Table S1; means ± SEM; read-out: IC50 (μM) HepG2
Method: Cytotoxicity against human cells was evaluated using the human liver carcinoma HepG2 cell line. HepG2 cells were cultured in D-MED supplemented with 4 mM L-glutamine and 10% fetal bovine serum (FBS) in a 75-cm^2 flask (Violamo) at 37°C. For the cytotoxicity assay, HepG2 cells in semiconfluent state were detached from the flask by incubating the cells with 5 mL D-MEM containing 0.25% trypsin-EDTA. After detachment, HepG2 cells were resuspended in D-MEM-supplemented L-glutamine and FBS, and cell viability was evaluated by incubating cells with 0.4% Trypan blue on a hemocytometer. An approximately 50-μL suspension containing 3,000 cells was dispensed into each well on a 384-well clear-bottom plate using a Multidrop Combi dispenser. Compounds dissolved in DMSO had been dispensed into wells to yield final concentrations of 100, 20, 4, 0.8, and 0.2 μM before cells were added. After cells were added to the plates, they were cultured at 37°C under 5% CO2. After 48 h cultivation, 5 μL of Cell Counting Kit-8 (Dojindo, Japan) was added, and the plates were further incubated for 2 h to assess cell growth and survival.

HsCOASY = molecular target: T1, HsCOASY (Homo sapiens, UniProt Q13057); assay: HsCOASY counterassay; format: biochemical; settings: reciprocal plot analysis
T1 construct: His tag (pCold1 vector); made in house; host or cells: Escherichia coli BL21Star (DE3)
T1 sequence (Q13057 1-564): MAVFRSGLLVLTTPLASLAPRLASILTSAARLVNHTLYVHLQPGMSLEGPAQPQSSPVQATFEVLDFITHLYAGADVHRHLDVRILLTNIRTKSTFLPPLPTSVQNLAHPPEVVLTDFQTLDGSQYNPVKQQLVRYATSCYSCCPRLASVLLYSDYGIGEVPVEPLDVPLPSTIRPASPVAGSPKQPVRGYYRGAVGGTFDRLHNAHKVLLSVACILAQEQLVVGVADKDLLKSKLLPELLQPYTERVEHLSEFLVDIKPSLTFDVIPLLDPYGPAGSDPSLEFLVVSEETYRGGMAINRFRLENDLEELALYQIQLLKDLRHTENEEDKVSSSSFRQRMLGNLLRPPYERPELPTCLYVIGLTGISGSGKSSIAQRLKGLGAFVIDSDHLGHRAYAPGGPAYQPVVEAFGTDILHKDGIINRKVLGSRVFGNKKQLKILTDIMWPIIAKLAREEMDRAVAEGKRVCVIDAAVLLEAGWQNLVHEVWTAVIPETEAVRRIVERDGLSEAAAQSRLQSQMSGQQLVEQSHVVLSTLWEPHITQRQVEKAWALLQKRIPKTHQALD
Method: PfDPCK and HsCOASY activity was measured by quantifying ADP produced in the reaction by a coupling assay using the ADP Hunter Plus assay kit (DiscoverX, USA) according to the manufacturer's instructions. Briefly, enzymatic reactions were carried out in a 20-μL mixture of assay buffer containing 15 mM HEPES, 20 mM NaCl, 1 mM EGTA, 0.02% Tween 20, 10 mM MgCl2, 0.1% bovine gamma globulin, 50 ng of recombinant PfDPCK or HsCOASY, 4 to 256 μM dephospho-CoA, and 5 to 300 μM ATP on a black microplate. All reactions were performed for 2 h, reagents A and B were added, and they were then reincubated for 60 min at 30°C. After reactions were terminated by addition of ADP Hunter Stop solution, the fluorescent signal was measured using SpectraMax Paradigm (Molecular Devices, CA, USA) at excitation and emission wavelengths of 530 and 590 nm, respectively. The kinetic parameters were calculated using the nonlinear regression function using the single saturating concentrations of the substrates by the GraphPad Prism software (GraphPad Software Inc., San Diego, CA). The experiments were repeated three times in triplicate using proteins purified from independent cultures. […]
The primary hits were reassayed in quadruplicate (n = 4) as in the primary screening. We next tested the confirmed secondary hits to exclude false positives that inhibit coupled fluorescence assay, but not PfDPCK. […]

- IC50 [1]: 9.78 ± 0.23 µM
- IC50 [2]: 9.26 ± 0.26 µM
- inhibition of HsCOASY (HsCOASY): inhibits PfDPCK, but not HsCOASY
SMILES: CC(C)(C)c1cc(C(=O)Cn2c(NCCO)nc3ccccc32)cc(C(C)(C)C)c1O [Compound A-15]
- IC50 (HepG2 cell line): 29.9 ± 3.61 µM
